Consider three compounds from patent EP1534672B1, “RETINOL DERIVATIVES, THEIR USE IN THE TREATMENT OF CANCER AND FOR POTENTIATING THE EFFICACY OF OTHER CYTOTOXIC AGENTS” (priority 2002, dated 2004).

Read-outs that look alike come from different tables or passages of the source.

Data set [1] deals with Human Breast Adenocarcinoma Cell Line MDA-MB-231. The experiment in a line: Drug cytotoxicity testing (viable cell count, trypan blue exclusion, cell growth inhibition). Type of data set: cell-based. The note with it: for inhibition at 0.1 µM / inhibition at 0.01 µM / inhibition at 0.001 µM: Homo sapiens. The essentials:
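A549 cells (10 × 10^3/well) and MDA-MB-231 cells (12 × 10^3/well) were left to adhere for 24 h, then exposed to drugs in medium with 5% FBS for 2 days. Viable cells were counted by trypan blue exclusion after trypsinization. Growth inhibition (%) = (control − test)/control × 100, from three determinations in six replicates each.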

In data set [2] the test system is Human Lung Carcinoma Cell Line A549. Described as above. Type of data set: cell-based.
The conditions of data set [3]: rat, in vivo, ip; for mortality: 100 mg/kg.
Protocol: A single dose i.p. toxicity study in rats was carried out. […] The minimal lethal dose is thus above 100 mg/kg body weight for these compounds.
[4] abbreviates: MDA-MB-231, 48 h, compound alone, final concentration 10^-7 mol/L, working solutions in MEM with 5% FBS, two days, read-out: cell growth inhibition.
The mark [5] stands for this setting: MDA-MB-231, 48 h, compound alone, final concentration 10^-8 mol/L, working solutions in MEM with 5% FBS, two days, read-out: cell growth inhibition.
The mark [6] stands for this setting: MDA-MB-231, 48 h, compound alone, final concentration 10^-9 mol/L, working solutions in MEM with 5% FBS, two days, read-out: cell growth inhibition.
Setting [7] is: MDA-MB-231, compound alone 10^-7 mol/L, in A (saline with […] CaCl2), read-out: cell growth inhibition.
[8] abbreviates: MDA-MB-231, compound alone 10^-7 mol/L, in B (normal saline), read-out: cell growth inhibition.
Where [9] appears, read: MDA-MB-231, compound alone 10^-7 mol/L, read-out: Cell growth inhibition in A compared to that in B was increased by.
[10] abbreviates: MDA-MB-231, compound alone 10^-8 mol/L, in A (saline with […] CaCl2), read-out: cell growth inhibition.
The mark [11] stands for this setting: MDA-MB-231, compound alone 10^-8 mol/L, in B (normal saline), read-out: cell growth inhibition.
[12] abbreviates: MDA-MB-231, compound alone 10^-8 mol/L, read-out: Cell growth inhibition in A compared to that in B was increased by.
Setting [13] is: MDA-MB-231, compound alone 10^-9 mol/L, in A (saline with […] CaCl2), read-out: cell growth inhibition.
[14] abbreviates: MDA-MB-231, compound alone 10^-9 mol/L, in B (normal saline), read-out: cell growth inhibition.
Setting [15] is: MDA-MB-231, compound alone 10^-9 mol/L, read-out: Cell growth inhibition in A compared to that in B was increased by.
[16] abbreviates: compound alone 10^-7 mol/L, in B (normal saline).
Setting [17] is: compound alone 10^-8 mol/L, in B (normal saline).
Where [18] appears, read: compound alone 10^-9 mol/L, in B (normal saline).
Where [19] appears, read: compound alone, final concentration 10^-7 mol/L, working solutions in MEM with 5% FBS, two days.
Where [20] appears, read: compound alone, final concentration 10^-8 mol/L, working solutions in MEM with 5% FBS, two days.
Where [21] appears, read: compound alone, final concentration 10^-9 mol/L, working solutions in MEM with 5% FBS, two days.
The mark [22] stands for this setting: sodium salt, range 10^-9 to 10^-7 M.
The mark [23] stands for this setting: sodium salt, range 10^-9 to 10^-7 M, dilution in normal saline (B).

Usually inhibition stands for the change of the read-out against control, counted positive when it falls.

Consider `COC(=O)[C@H](CS(=O)(=O)O)NC(=O)\C=C(C)/C=C/C=C(C)/C=C/C1=C(C)CCCC1(C)C` [compound II-1a, N-(13-cis-retinoyl)-L-cysteic acid methyl ester], for which the inhibition at 0.1 µM in data set [1] (setting [4]) amounted to 46.5%; in data set [1] (setting [7]) it was 48.9%; in data set [1] (setting [8]) it was 40.5%; in data set [1] (setting [9]), 14.1%; in data set [2] (Homo sapiens, A549, compound alone 10^-7 mol/L, in A (saline with […] CaCl2)) it was 34.4%; in data set [2] (Homo sapiens, A549, compound alone 10^-7 mol/L, in B (normal saline)) it was 25.6%. In addition, the inhibition at 0.01 µM in data set [1] (setting [5]) turned out to be 44.1%; in data set [1] (setting [10]) it was 41.7%; in data set [1] (setting [11]), 31.2%; in data set [1] (setting [12]), 15.2%; in data set [2] (Homo sapiens, A549, compound alone 10^-8 mol/L, in A (saline with […] CaCl2)), 26.9%; in data set [2] (Homo sapiens, A549, compound alone 10^-8 mol/L, in B (normal saline)) it was 15.6%. In addition, the inhibition at 0.001 µM amounted to 38.8% in data set [1] (setting [6]); 35.8% in data set [1] (setting [13]); 23% in data set [1] (setting [14]); 16.6% in data set [1] (setting [15]); 20.4% in data set [2] (Homo sapiens, A549, compound alone 10^-9 mol/L, in A (saline with […] CaCl2)); 7.2% in data set [2] (Homo sapiens, A549, compound alone 10^-9 mol/L, in B (normal saline)). Moreover, the “number of viable cells” value in data set [1] (setting [16]) was 34.1 ± 1.97 × 10^3; in data set [1] (setting [17]), 39.4 ± 2.28 × 10^3; in data set [1] (setting [18]), 44.1 ± 2.24 × 10^3; in data set [1] (setting [19]), 31.3 ± 2.15 × 10^3; in data set [1] (setting [20]), 32.7 ± 2.06 × 10^3; in data set [1] (setting [21]), 35.8 ± 2.50 × 10^3. In addition, the “number of viable cells” value in data set [2] (setting [16]) was 41.5 ± 1.80 × 10^3; in data set [2] (setting [17]), 47.1 ± 1.43 × 10^3; in data set [2] (setting [18]) it was 51.8 ± 2.48 × 10^3. The “cell growth inhibition in (A) compared to compound in B” value is approximately 14% in data set [1] (setting [22]) and approximately 12% in data set [2] (setting [22]). Besides, in data set [2] (Homo sapiens, A549, compound alone 10^-7 mol/L, read-out: Cell growth inhibition in A compared to that in B was increased by), the increase in cell growth inhibition in A over B at 0.1 µM stood at 11.8%. Besides, in data set [2] (Homo sapiens, A549, compound alone 10^-8 mol/L, read-out: Cell growth inhibition in A compared to that in B was increased by), the increase in cell growth inhibition in A over B at 0.01 µM was 13.4%. Besides, in data set [2] (Homo sapiens, A549, compound alone 10^-9 mol/L, read-out: Cell growth inhibition in A compared to that in B was increased by), the increase in cell growth inhibition in A over B at 0.001 µM came to 14.3%. For the same compound, in data set [2] (setting [23]), the “cell growth inhibition reached on increase of the concentration, in (B)” value was approximately 26%. Besides, the minimal lethal dose entry in data set [3] is “above 100 mg/kg body weight”. For the same compound, the mortality result in data set [3] is recorded as “did not produce mortality”.

With `CC1=C(/C=C/C(C)=C/C=C/C(C)=C/C(=O)N[C@@H](CS(=O)(=O)O)C(N)=O)C(C)(C)CCC1` [compound I-1f, N-(all-trans-retinoyl)-L-cysteic acid amide], the inhibition at 0.1 µM in data set [1] (setting [4]) is 52.5%; in data set [1] (setting [7]) it was 53.3%; in data set [1] (setting [8]) it was 44.9%; in data set [1] (setting [9]), 15.2%. In addition, the inhibition at 0.01 µM in data set [1] (setting [5]) is 48.6%; in data set [1] (setting [10]), 46.3%; in data set [1] (setting [11]), 36.1%; in data set [1] (setting [12]) it was 16.1%. Moreover, the inhibition at 0.001 µM in data set [1] (setting [6]) turned out to be 44.8%; in data set [1] (setting [13]), 38.6%; in data set [1] (setting [14]) it was 25.8%; in data set [1] (setting [15]) it was 17.1%. The “number of viable cells” value in data set [1] (setting [16]) was 31.6 ± 0.89 × 10^3; in data set [1] (setting [17]), 36.7 ± 0.75 × 10^3; in data set [1] (setting [18]), 42.6 ± 0.80 × 10^3; in data set [1] (setting [19]) it was 25.3 ± 1.11 × 10^3; in data set [1] (setting [20]), 27.4 ± 1.42 × 10^3; in data set [1] (setting [21]), 29.4 ± 2.15 × 10^3. Moreover, the “cell growth inhibition in (A) compared to compound in B” value in data set [1] (setting [22]) is reported as approximately 15%. Besides, the “cell growth inhibition reached on increase of the concentration, in (B)” value in data set [1] (setting [23]) is given as approximately 45%. In addition, the minimal lethal dose result in data set [3] is “above 100 mg/kg body weight”. The mortality result in data set [3] was “did not produce mortality”.

With `COC(=O)[C@H](CCS(=O)(=O)O)NC(=O)/C=C(C)/C=C/C=C(C)/C=C/C1=C(C)CCCC1(C)C` [compound I-3a, N-(all-trans-retinoyl)-L-homocysteic acid methyl ester], the inhibition at 0.1 µM in data set [1] (setting [4]) is 49%. In data set [1] (setting [5]), the inhibition at 0.01 µM was 38.2%. Also, the inhibition at 0.001 µM in data set [1] (setting [6]) was found to be 29.2%. For the same compound, the “number of viable cells” value in data set [1] (setting [19]) is given as 28.8 ± 1.15 × 10^3. Also, the “number of viable cells” value in data set [1] (setting [20]) is 34.9 ± 1.64 × 10^3. In data set [3], the minimal lethal dose result is “above 100 mg/kg body weight” and the mortality entry is “did not produce mortality”.
